Experiments:
[1] = Viability of A375 cells after pretreatment, trypan blue exclusion; assay type: cell-based; conditions: human, A375 melanoma cells, vehicle 94%, read-out: Viable cells after pretreatment
From the text: Viability was quantified by trypan blue dye exclusion method. The images confirmed the presence of cytoplasmic vacuolization occurred only in the compound 1 treated cells. […] The left flank received cells pretreated with vehicle and the right flank received cells pretreated with compound 1. At 27 days later, mice were photographed, and tumors excised. […] Error bars indicate the SEM for 5 tumors.
To determine whether or not compound 1 could inhibit progression of a tumor that arose from autophagy-dependent cancer cells, melanoma A375 cells were pretreated with either vehicle or compound 1 and then assayed for their ability to produce a tumor. Pretreatment consisted of culturing A375 cells for 8 hours with 10 μM compound 1. The cells were then recovered by trypsinization and their viability confirmed by trypan blue exclusion. […] The cells were then inoculated subcutaneously into the flanks of immuno-compromised mice.

[2] = system: 468 human kinases; assay: DiscoverX KINOMEscan profile at 10 μM; assay type: binding; conditions: panel of 468 human kinases
Description: Each kinase was tagged with a unique DNA sequence that allowed the amount of protein bound to the solid support to be quantified by PCR. The top three targets for compound 1 were PIKFYVE, PIP4K2C and MTOR. […] Dissociation constants (Kd) were determined from the amount of kinase captured on the solid support as a function of the test compound concentration (nM) on a log10 scale. Mean Kd values (±range) are given for each compound. The ratio of PIP4K2C to PIKFYVE indicates the relative specificity for these two kinases.
To address this hypothesis, a panel of 468 human kinases were screened for their ability to bind compound 1. […] The top two candidates were PIKFYVE (phosphoinositide kinase FYVE-type zinc finger containing) and PIP4K2C (phosphatidylinositol-5-phosphate 4-kinase). PIKFYVE is a kinase that is essential for mouse development (49) and that prevents endosome enlargement and cytoplasmic vacuolization (50, 51). PIP4K2C is a kinase that is not essential for mouse growth and viability, but it is essential for the immune system (52), mTORC1 signaling (53), and regulation of autophagy (54). The third candidate was MTOR, a kinase that regulates autophagy (55). Therefore, the binding constants (Kd) for all five members of the compound 1-family were determined for each of these three proteins from two independent titration curves, as shown for compound 1.

[3] = system: human foreskin fibroblasts; assay: Proliferation/viability of human foreskin fibroblasts; assay type: cell-based; conditions: Fibroblast; human foreskin fibroblasts; read-out: EC50
Description: Concentration of each compound in the plate assay is indicated below the compound 1 plate.
(§1) Cells were obtained from the American Type Culture Collection. BORCS5-KO HeLa cells have been described previously. Osteosarcoma U2OS were routinely seeded in 6-well plates (0.5×10^5 cells/well) and cultured in Dulbecco's Modified Eagle's medium supplemented with L-Glutamine, 4.5 g/L Glucose, Sodium Pyruvate, Phenol Red, and either heat-inactivated or normal 10% fetal calf serum at 37° C. in 5% CO2. Approximately 15-19 hours later, the indicated compound was added in 1:1000 dilutions. […] Melanoma A375, embryonic kidney 293T and human foreskin fibroblast Hs27 cells were cultured in the same medium, except that cells were seeded into 12-well plates at 10^3 cells/well.

[4] = system: melanoma A375 tumors; assay: Vacuolation and autophagy markers within tumors of treated mice; assay type: in vivo
From the text: Cytoplasmic vacuolation was clear in tumors from compound 1-treated mice, and the extent of vacuolation was clearly greater at with greater concentrations of compound 1.
To determine whether or not compound 1 injected intraperitoneally was active within the tumor, tumor slices were stained with hematoxylin and eosin to visualize cellular structure.

[5] = system: osteosarcoma U2OS cells; assay: U2OS cell viability (cellular ATP); assay type: cell-based, human
From the text: These effects are dependent on the compound selected, its concentration and the length of time cells are exposed to the compound.

[6] = system: U2OS cells; assay: GFP-LC3 / LAMP1-RFP co-localization (autolysosome formation); assay type: cell-based, human; conditions: compound 1 or rapamycin and compound 1, 4 hours
Description: Confocal microscopic images are shown in FIG. 13A of U2OS cells that were co-transfected with a GFP-LC3B expression vector to label autophagosomes green and a LAMP1-RFP expression vector to label lysosomes red. Cells were then treated for 4 hrs with 1 μM rapamycin to induce autophagy, or with 1 μM compound 1 to disrupt autophagy, or with both 1 μM rapamycin and 1 μM compound 1. Cells were then fixed and viewed by confocal microscopy. Nuclei were stained with DAPI. […] The mean±SEM results from 50 cells is given for two independent experiments.
To determine whether or not the absence of an acidic environment resulted from failure of lysosomes to fuse with autophagosomes, cells were transfected with both GFP-LC3 and LAMP1-RFP expression vectors, and then cultured for 4 hours in the presence of vehicle, rapamycin, or both rapamycin and compound 1 (FIG. 13). Rapamycin is an established inducer of autophagy (42, 43). As expected, rapamycin induced accumulation of GFP-LC3 labeled autophagosomes (green), some of which were autolysosomes, as shown by co-localization with LAMP1-RFP on control cells. In contrast, GFP-LC3 and LAMP1-RFP labeled different populations of vesicles in cells cultured with either compound 1 or rapamycin and compound 1, despite the fact that the density of autophagosomes was at least 3-fold greater.

[7] = system: melanoma A375 cells; assay: A375 cell viability (CellTiter-Glo ATP, trypan blue live cells); assay type: cell-based, human; conditions: 0.1 μM
Description: To reveal viability, cells were seeded into 96-well plates (1,000 cells/well), and the indicated compound was added the following day. Cells were cultured for four days before quantification of total cellular ATP. […] In separate 12-well plates, attached cells were collected by trypsinization, combined with unattached cells, and stained with trypan blue to identify dead cells. Vehicle was plotted as 0.001 μM compound in order to apply a logarithmic scale. Data were plotted as the mean±SEM for three independent experiments.
as §1

[8] = system: cathepsin D (CTSD) in U2OS cells; assay: Cathepsin D maturation, Western immuno-blotting; assay type: cell-based, human; conditions: 4 h
Description: Mature and immature cathepsin D (CTSD), LC3-I, LC3-II, and β-actin proteins were identified by Western immuno-blotting, under the same conditions, and detected with specific antibodies and by co-fractionation with molecular mass markers (kDa). Cathepsin D maturation via proteolysis requires acidity.
Total cell lysates were prepared (in 4× dye). Proteins were fractionated at 200V in a NuPAGE 4-12% bis-tris polyacrylamide gel (NP0323, Novex) using NuPAGE MES running buffer (NP0002, Novex) and then stained with PageBlue (24260, Thermo Scientific) in order to quantify the relative amount of histones in each sample. […] Proteins were wet-transferred onto nitrocellulose membranes (162-0112, Bio-Rad) using NuPAGE transfer buffer (NP-0006-1, Novex) for 1 hour at 30V. Membranes were then stained with dilute Ponceau S solution, blocked in 5% milk for 30 minutes at room temperature, and incubated overnight at 4° C. in primary antibody. Membranes were washed with phosphate buffered saline with tween 20 (PBST) three times for 10 min. each, incubated with secondary antibodies in 5% milk for 1 hour, washed three times with PBST again, covered in ECL (SuperSignal West Pico chemiluminescent substrate, 34080, Thermo Scientific) and exposed to film (HyBlot ES, E3218, Denville Scientific).

Compound: C1=Nc2ccccc2/C1=C/NNc1nc(Nc2ccccc2)nc(N2CCOCC2)n1 [compound 1]
- viability at 8 h, 10 µM [1]: 92%
- Number of kinases with binding affinities of 25% or greater [2]: ten
- EC50 [3]: > 10 µM
- LC3-II and p62 proteins in tumor lysates ([4]; Western blot): increased levels of LC3-H and p62 proteins
- Cytoplasmic vacuolation in tumor slices ([4]; hematoxylin and eosin): clearly evident
- Efficacy at reducing U2OS viability relative to HCQ or CQ [5]: 13 times
- Density of autophagosomes relative to rapamycin alone [6]: at least 3 fold
- Effect on Melanoma A375 cells [7]: killed
- Cellular level of mature cathepsin D relative to vehicle treated cells [8]: about 50%

Source: US11471460B2, “Autophagy modulators for use in treating cancer” (The United States of America,as represented by the …, priority 2017, dated 2022)
